In PubChem BioAssay AID330 (DTP/NCI, 2004):
Several values for one entry are separate records, joined by “and”; a condition that tells them apart may be missing. Identical values can stand only once. Toxic doses and inconclusive results are not listed.

Tested on: P388 leukemia ip, CD2F1 mice, survival T/C
Experiment: NCI In Vivo Anticancer Drug Screen. Data for tumor model P388 Leukemia (intraperitoneal) in CD2F1 (CDF1) mice
Details: endpoint: median survival time, higher = longer survival
Summary of the method: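 Mice carrying the transplanted tumor received test compound or vehicle. Survival was recorded in each group, and the value is the treated-group measurement divided by that of the vehicle-treated control group.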

[1] = dose: 12.5 mg/kg/injection, schedule: Q01DX009 (ip), vehicle: saline with Tween-80
[2] = dose: 25.0 mg/kg/injection, schedule: Q01DX009 (ip), vehicle: saline with Tween-80
[3] = dose: 12.5 mg/kg/injection, schedule: Q01DX009 (ip), vehicle: water
[4] = dose: 50.0 mg/kg/injection, schedule: Q04DX003 (ip), vehicle: Klucel (hydroxypropylcellulose) (HPC)
[5] = dose: 100.0 mg/kg/injection, schedule: Q04DX003 (ip), vehicle: Klucel (hydroxypropylcellulose) (HPC)
[6] = dose: 200.0 mg/kg/injection, schedule: Q04DX003 (ip), vehicle: Klucel (hydroxypropylcellulose) (HPC)
[7] = dose: 50.0 mg/kg/injection, schedule: Q01DX009 (ip), vehicle: Klucel (hydroxypropylcellulose) (HPC)
[8] = dose: 100.0 mg/kg/injection, schedule: Q01DX009 (ip), vehicle: Klucel (hydroxypropylcellulose) (HPC)
[9] = dose: 200.0 mg/kg/injection, schedule: Q01DX009 (ip), vehicle: Klucel (hydroxypropylcellulose) (HPC)
[10] = dose: 50.0 mg/kg/injection, schedule: Q01DX005 (ip), vehicle: saline with Tween-80
[11] = dose: 50.0 mg/kg/injection, schedule: Q01DX005 (ip), vehicle: Klucel (hydroxypropylcellulose) (HPC)
[12] = dose: 50.0 mg/kg/injection, schedule: Q01DX009 (ip), vehicle: saline
[13] = dose: 200.0 mg/kg/injection, schedule: Q01DX009 (ip), vehicle: saline
[14] = dose: 60.0 mg/kg/injection, schedule: Q01DX005 (ip), vehicle: saline with Tween-80
[15] = dose: 120.0 mg/kg/injection, schedule: Q01DX005 (ip), vehicle: saline with Tween-80

**Q.** Which results are given for `CC1(C)N=C(N)N=C(N)N1c1ccc(CCCCc2cccc(S(=O)(=O)F)c2)c(Cl)c1`?
**A.** T/C (dose: 0.11 mg/kg/injection, schedule: Q01DX009 (ip), vehicle: saline with Tween-80): 107 % of control; T/C (dose: 0.17 mg/kg/injection, schedule: Q01DX009 (ip), vehicle: saline with Tween-80): 111 % of control; T/C (dose: 0.25 mg/kg/injection, schedule: Q01DX009 (ip), vehicle: saline with Tween-80): 115 % of control; T/C (dose: 0.66 mg/kg/injection, schedule: Q01DX009 (ip), vehicle: saline with Tween-80): 107 % of control; T/C (dose: 1.0 mg/kg/injection, schedule: Q01DX009 (ip), vehicle: saline with Tween-80): 109 % of control; T/C (dose: 3.3 mg/kg/injection, schedule: Q01DX009 (ip), vehicle: saline with Tween-80): 160 % of control; T/C (dose: 5.0 mg/kg/injection, schedule: Q01DX009 (ip), vehicle: saline with Tween-80): 150 % of control; T/C (dose: 6.25 mg/kg/injection, schedule: Q01DX009 (ip), vehicle: saline with Tween-80): 150 % of control; T/C (dose: 7.5 mg/kg/injection, schedule: Q01DX009 (ip), vehicle: saline with Tween-80): 155 % of control; T/C (dose: 8.0 mg/kg/injection, schedule: Q01DX009 (ip), vehicle: saline with Tween-80): 154 % of control; T/C (dose: 8.0 mg/kg/injection, schedule: Q01DX009 (ip), vehicle: saline): 157 % of control; T/C (dose: 12.0 mg/kg/injection, schedule: Q01DX009 (ip), vehicle: saline with Tween-80): 163 % of control; T/C (dose: 12.0 mg/kg/injection, schedule: Q01DX009 (ip), vehicle: saline): 154 % of control; T/C [1]: 150 % of control; T/C (dose: 18.0 mg/kg/injection, schedule: Q01DX009 (ip), vehicle: saline with Tween-80): 150 % of control; T/C (dose: 18.0 mg/kg/injection, schedule: Q01DX009 (ip), vehicle: saline): 181 % of control; T/C [2]: 95 % of control; T/C (dose: 27.0 mg/kg/injection, schedule: Q01DX009 (ip), vehicle: saline with Tween-80): 150 % of control

**Q.** Which T/C [3] does the source give for `NC(=O)c1cnn(CCOS(=O)(=O)O)c1N` here?
**A.** 103 % of control

**Q.** And the T/C (dose: 25.0 mg/kg/injection, schedule: Q01DX009 (ip), vehicle: water)?
**A.** 101 % of control

**Q.** And the T/C (dose: 50.0 mg/kg/injection, schedule: Q01DX009 (ip), vehicle: water)?
**A.** 108 % of control

**Q.** And the T/C (dose: 100.0 mg/kg/injection, schedule: Q01DX009 (ip), vehicle: water)?
**A.** 107 % of control

**Q.** And the T/C (dose: 200.0 mg/kg/injection, schedule: Q01DX009 (ip), vehicle: water)?
**A.** 103 % of control

**Q.** With `CP1(=O)CCC2=C1CCc1cc(O)ccc12` (configuration not stated) as the compound, how does the T/C (dose: 6.25 mg/kg/injection, schedule: Q01DX009 (ip), vehicle: Klucel (hydroxypropylcellulose) (HPC)) read?
**A.** 100 % of control

**Q.** And the T/C (dose: 12.5 mg/kg/injection, schedule: Q01DX009 (ip), vehicle: Klucel (hydroxypropylcellulose) (HPC))?
**A.** 100 % of control

**Q.** And the T/C (dose: 25.0 mg/kg/injection, schedule: Q01DX009 (ip), vehicle: Klucel (hydroxypropylcellulose) (HPC))?
**A.** 103 % of control and 106 % of control

**Q.** What does the source list for `O=c1c2ccccc2on1CN1CCN(Cn2oc3ccccc3c2=O)CC1`?
**A.** T/C (dose: 50.0 mg/kg/injection, schedule: Q01DX005 (ip), vehicle: water): 106 % of control; T/C (dose: 100.0 mg/kg/injection, schedule: Q01DX005 (ip), vehicle: water): 108 % of control; T/C (dose: 200.0 mg/kg/injection, schedule: Q01DX005 (ip), vehicle: water): 111 % of control

**Q.** With `[O-]c1n[n+](Cc2ccc(Br)cc2)no1` as the compound, how does the T/C [4] read?
**A.** 96 % of control

**Q.** What about the T/C [5] of the same compound?
**A.** 100 % of control

**Q.** And the T/C [6]?
**A.** 110 % of control

**Q.** With `CN1C(=O)C(=O)N(Cc2ccc(CN3C(=O)C(=O)N(C)C3=O)cc2)C1=O` as the compound, how does the T/C [7] read?
**A.** 101 % of control

**Q.** And the T/C [8]?
**A.** 103 % of control

**Q.** And the T/C [9]?
**A.** 100 % of control

**Q.** With `C[n+]1ccc(-c2nc(-c3cc[n+](C)cc3)nc(-c3cc[n+](C)cc3)n2)cc1` as the compound, how does the T/C (dose: 25.0 mg/kg/injection, schedule: Q01DX001 (ip), vehicle: saline with Tween-80) read?
**A.** 102 % of control

**Q.** And the T/C (dose: 50.0 mg/kg/injection, schedule: Q01DX001 (ip), vehicle: saline with Tween-80)?
**A.** 99 % of control

**Q.** What about the T/C (dose: 100.0 mg/kg/injection, schedule: Q01DX001 (ip), vehicle: saline with Tween-80) of the same compound?
**A.** 108 % of control

**Q.** Which results are given for `CCCCC(CC)CN(CC(CC)CCCC)C(=O)C(C)O` (configuration not stated)?
**A.** T/C [10]: 105 % of control; T/C (dose: 100.0 mg/kg/injection, schedule: Q01DX005 (ip), vehicle: saline with Tween-80): 103 % of control; T/C (dose: 200.0 mg/kg/injection, schedule: Q01DX005 (ip), vehicle: saline with Tween-80): 108 % of control

**Q.** For `COc1ccc(NC(=O)C2C(=O)N(c3ccc(OC)cc3)C(=O)/C2=N/NC(N)=S)cc1` (configuration not stated), which T/C (dose: 12.5 mg/kg/injection, schedule: Q01DX005 (ip), vehicle: saline with Tween-80) is on record?
**A.** 101 % of control

**Q.** And the T/C (dose: 25.0 mg/kg/injection, schedule: Q01DX005 (ip), vehicle: saline with Tween-80)?
**A.** 100 % of control

**Q.** And the T/C [10]?
**A.** 100 % of control and 90 % of control

**Q.** How did the T/C [7] turn out when `O=C1CC2(CCCC2)C(=O)N1c1ccc(N2C(=O)CC3(CCCC3)C2=O)cc1` was run?
**A.** 96 % of control

**Q.** And the T/C [8]?
**A.** 99 % of control

**Q.** And the T/C [9]?
**A.** 96 % of control

**Q.** Which results are given for `COC(=O)NC1=Nc2ccc(Cl)cc2NS1`?
**A.** T/C (dose: 12.5 mg/kg/injection, schedule: Q01DX005 (ip), vehicle: Klucel (hydroxypropylcellulose) (HPC)): 102 % of control; T/C (dose: 25.0 mg/kg/injection, schedule: Q01DX005 (ip), vehicle: Klucel (hydroxypropylcellulose) (HPC)): 100 % of control; T/C [11]: 112 % of control and 97 % of control

**Q.** Which results are given for `COc1cc(/C=C/C(=O)c2ccc(OCc3ccccc3)cc2OC(C)=O)c(OC)c(OC)c1OC`?
**A.** T/C (dose: 100.0 mg/kg/injection, schedule: Q01DX001 (ip), vehicle: Klucel (hydroxypropylcellulose) (HPC)): 96 % of control; T/C (dose: 200.0 mg/kg/injection, schedule: Q01DX001 (ip), vehicle: Klucel (hydroxypropylcellulose) (HPC)): 94 % of control

**Q.** With `CCCC(=O)O` as the compound, how does the T/C [12] read?
**A.** 93 % of control

**Q.** What about the T/C (dose: 100.0 mg/kg/injection, schedule: Q01DX009 (ip), vehicle: saline) of the same compound?
**A.** 91 % of control

**Q.** What about the T/C [13] of the same compound?
**A.** 90 % of control

**Q.** What does the source list for `Cc1cc(N=NC(N)=S)c2ccccc2c1O`?
**A.** T/C (dose: 25.0 mg/kg/injection, schedule: Q04DX003 (ip), vehicle: Klucel (hydroxypropylcellulose) (HPC)): 100 % of control; T/C [4]: 97 % of control; T/C [5]: 102 % of control; T/C [6]: 100 % of control

**Q.** How did the T/C [3] turn out when `O=NNc1ncccc1OCc1ccccc1` was run?
**A.** 111 % of control and 112 % of control

**Q.** Which results are given for `Cc1ccccc1CC1c2[nH]c3ccccc3c2CCN1C` (configuration not stated)?
**A.** T/C [14]: 109 % of control; T/C [15]: 109 % of control

**Q.** `Cc1c(C)c(N(CCCl)CCCl)c(C)c2c1OC(C)(CCCC(C)CCCC(C)CCCC(C)C)CC2` (configuration not stated) was tested. Which T/C (dose: 100.0 mg/kg/injection, schedule: Q04DX002 (ip), vehicle: saline with Tween-80) did it give?
**A.** 113 % of control

**Q.** What about the T/C (dose: 200.0 mg/kg/injection, schedule: Q04DX002 (ip), vehicle: saline with Tween-80) of the same compound?
**A.** 113 % of control

**Q.** And the T/C (dose: 400.0 mg/kg/injection, schedule: Q04DX002 (ip), vehicle: saline with Tween-80)?
**A.** 115 % of control

**Q.** `CC1=NOC2C1Sc1ccccc1N2C` (configuration not stated) was tested. Which T/C [11] did it give?
**A.** 103 % of control

**Q.** And the T/C (dose: 100.0 mg/kg/injection, schedule: Q01DX005 (ip), vehicle: Klucel (hydroxypropylcellulose) (HPC))?
**A.** 102 % of control

**Q.** What about the T/C (dose: 200.0 mg/kg/injection, schedule: Q01DX005 (ip), vehicle: Klucel (hydroxypropylcellulose) (HPC)) of the same compound?
**A.** 100 % of control

**Q.** Which T/C [14] does the source give for `CCOC(=O)c1ccc(NC(=O)Oc2ccccc2C(=O)OC)cc1` here?
**A.** 100 % of control

**Q.** And the T/C [15]?
**A.** 100 % of control

**Q.** What about the T/C (dose: 240.0 mg/kg/injection, schedule: Q01DX005 (ip), vehicle: saline with Tween-80) of the same compound?
**A.** 95 % of control

**Q.** Which results are given for `CN(N=O)C(N)=O`?
**A.** T/C (dose: 5.0 mg/kg/injection, schedule: Q04DX003 (ip), vehicle: saline with Tween-80): 104 % of control; T/C (dose: 10.0 mg/kg/injection, schedule: Q04DX003 (ip), vehicle: saline with Tween-80): 119 % of control; T/C [1]: 159 % of control; T/C [2]: 95 % of control; T/C (dose: 25.0 mg/kg/injection, schedule: Q04DX003 (ip), vehicle: saline with Tween-80): 177 % of control; T/C (dose: 37.5 mg/kg/injection, schedule: Q04DX003 (ip), vehicle: saline with Tween-80): 172 % of control; T/C (dose: 50.0 mg/kg/injection, schedule: Q04DX003 (ip), vehicle: saline with Tween-80): 113 % of control

**Q.** With `O=C(O)c1cc2ccc(Cl)cc2[se]1` as the compound, how does the T/C (dose: 12.5 mg/kg/injection, schedule: Q01DX009 (ip), vehicle: saline) read?
**A.** 89 % of control

**Q.** And the T/C (dose: 25.0 mg/kg/injection, schedule: Q01DX009 (ip), vehicle: saline)?
**A.** 105 % of control

**Q.** And the T/C [12]?
**A.** 106 % of control and 88 % of control

**Q.** What about the T/C [13] of the same compound?
**A.** 91 % of control
